Data on 29 molecules can be found in patent US11759461B2, “Small molecule inhibitors of cancer stem cells and mesenchymal cancer types” (The Scripps Research Institute, priority 2017, dated 2023).

The experiment deals with FOXC2-expressing HMLER cells. Kind of experiment: Cell Titer Glo viability of FOXC2-HMLER cells (high throughput screen and 10-point response). The format is cell-based. Particulars: Homo sapiens, 72 hours. The essentials:
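FOXC2-HMLER cells (HMLER run in parallel) seeded at 1,000 cells/well in MEGM, attached 1 h, then given compound in DMSO (2 μM in the screen). After 72 h, viability was read by Cell Titer Glo luminescence.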

The mark [1] stands for this setting: scored relative to parent compound 3, read-out: Activity Score, inhibition of FOXC2-expressing HMLER cells by Formula III compounds.
The mark [2] stands for this setting: scored relative to parent compound 4, read-out: Activity Score, inhibition of FOXC2-expressing HMLER cells by Formula IV compounds.

Where two headings read alike, the source gives them in different places.

As for `O=C(c1cccc(-n2nnc3cccnc32)c1)N1CCN(c2ccccc2)CC1` [Compound 3P], under setting [1], the IC50 is 1 to 20 µM.
Same read-out and setting: as for `O=C(c1cccc(-n2nnc3cccnc32)c1)N1CCN(c2cccc(Cl)c2)CC1` [Compound 3Q], the figure is 1 to 20 µM; as for `O=C(c1cccc(-n2nnc3cccnc32)c1)N1CCN(C2CCCCC2)CC1` [Compound 3R], 1 to 20 µM; as for `Cc1cccc(N2CCN(C(=O)c3cccc(-n4nnc5cccnc54)c3)CC2C)c1` (centres unmarked) [Compound 3S], 1 to 20 µM.
Same read-out and setting: as for `Cc1ccc(CN2CCC(CNC(=O)c3cccc(-n4nnc5cccnc54)c3)CC2)cc1` [Compound 3T], the figure is 1 to 20 µM; as for `COc1cccc(N2CCN(C(=O)c3ccc(C)c(-n4nnc5cccnc54)c3)CC2)c1` [Compound 3U], 1 to 20 µM.
Still for that read-out and setting: as for `Cc1ccc(C(=O)N2CCN(c3ccccc3)CC2)cc1-n1nnc2cccnc21` [Compound 3V], the figure is 1 to 20 µM.
`Cc1ccc(C(=O)N2CCN(c3cccc(Cl)c3)CC2)cc1-n1nnc2cccnc21` [Compound 3W]: the IC50 under setting [1] was in the range of 1 to 20 µM.
Still for that read-out and setting: as for `Cc1ccc(C)c(N2CCN(C(=O)c3ccc(C)c(-n4nnc5cccnc54)c3)CC2)c1` [Compound 3X], the figure is 1 to 20 µM.
Same read-out and setting: as for `Cc1ccc(Cl)cc1N1CCN(C(=O)c2ccc(C)c(-n3nnc4cccnc43)c2)CC1` [Compound 3Y], the figure is 1 to 20 µM; as for `Cc1ccc(C(=O)N2CCC(Cc3ccccc3)CC2)cc1-n1nnc2cccnc21` [Compound 3Z], 1 to 20 µM; as for `Cc1cccc(N2CCN(C(=O)c3cccc(-n4nnc5cccnc54)c3C)CC2C)c1` (centres unmarked) [Compound 3], less than 1 µM.
`Cc1ccc(C)c(N2CCN(S(=O)(=O)c3c(C)nn(-c4ccc(F)cc4)c3C)CC2)c1` [Compound 4AA]: under setting [2], the IC50 is greater than 20 µM.
On the same count and under the same terms, as for `Cc1nn(-c2ccc(F)cc2)c(C)c1S(=O)(=O)N1CCN(c2ccccn2)CC1` [Compound 4AB], the figure is greater than 20 µM.
`Cc1nn(-c2ccc(F)cc2)c(C)c1S(=O)(=O)N1CCN(c2ccc(F)cc2)CC1` [Compound 4AC]: the IC50 under setting [2] was greater than 20 µM.
In the case of `Cc1ccc(-n2nc(C)c(S(=O)(=O)N3CCN(c4ccc(Cl)cc4)CC3)c2C)cc1` [Compound 4AD], the IC50 under setting [2] was greater than 20 µM.
The same measure, in the same setting: as for `Cc1ccc(-n2nc(C)c(S(=O)(=O)N3CCN(c4cccc(C)c4C)CC3)c2C)cc1` [Compound 4AE], the figure is greater than 20 µM; as for `Cc1ccc(-n2nc(C)c(S(=O)(=O)N3CCN(c4ccccn4)CC3)c2C)cc1` [Compound 4AF], greater than 20 µM.
On to `Cc1c(S(=O)(=O)N2CCCN(c3ccc(=O)n(-c4ccc(F)cc4)n3)CC2)cnn1C(F)F` [Compound 4AG], for which, under setting [2], the IC50 was greater than 20 µM.
As to `Cc1ccc(-n2nc(N3CCCN(S(=O)(=O)c4cnn(C(F)F)c4C)CC3)ccc2=O)cc1C` [Compound 4AH], the IC50 under setting [2] is greater than 20 µM.
On the same count and under the same terms, as for `Cc1ccc(-n2nc(N3CCCN(S(=O)(=O)c4cnn(C(F)F)c4C)CC3)ccc2=O)cc1` [Compound 4AI], the figure is greater than 20 µM; as for `Cc1c(S(=O)(=O)N2CCN(c3ccc(=O)n(-c4ccc(F)cc4)n3)CC2)cnn1C(F)F` [Compound 4AJ], greater than 20 µM; as for `Cc1ccc(-n2nc(N3CCN(S(=O)(=O)c4cnn(C(F)F)c4C)CC3)ccc2=O)cc1C` [Compound 4AK], greater than 20 µM.
Same read-out and setting: as for `Cc1c(S(=O)(=O)N2CCN(c3ccc(=O)n(-c4ccccc4)n3)CC2)cnn1C(F)F` [Compound 4AL], the figure is greater than 20 µM; as for `Cc1c(S(=O)(=O)N2CCN(c3ccc(=O)n(-c4ccc(Cl)cc4)n3)CC2)cnn1C(F)F` [Compound 4AM], greater than 20 µM; as for `Cc1c(S(=O)(=O)N2CCN(C)c3ccccc32)cnn1C(F)F` [Compound 4AN], greater than 20 µM.
On the same count and under the same terms, as for `Cc1nn(-c2ccc(-c3ccccc3)nn2)c(C)c1S(=O)(=O)N1CCN(c2ccccc2)CC1` [Compound 4AO], the figure is greater than 20 µM; as for `Cc1nn(-c2ccc(-c3ccccc3)nn2)c(C)c1S(=O)(=O)N1CCN(c2ccccn2)CC1` [Compound 4AP], greater than 20 µM.
Consider `Cc1cccc(N2CCN(S(=O)(=O)c3c(C)nn(-c4ccc(-c5ccccc5)nn4)c3C)CC2)c1` [Compound 4AQ], for which the IC50 under setting [2] was greater than 20 µM.
